Marks after values point to notes of the source that are not given here.
Columns and labels:
[1] = tested on: patients with hyposmia; test: Smell function tests (DT, RT, ME), forced-choice three-stimuli stepwise-staircase technique, open trial of oral theophylline; format: in vivo, human; conditions: for detection threshold (DT), amyl acetate / detection threshold (DT), nitrobenzene / detection threshold (DT), pyridine / detection threshold (DT), thiophene / magnitude estimation (ME), amyl acetate / magnitude estimation (ME), nitrobenzene / magnitude estimation (ME), pyridine / magnitude estimation (ME), thiophene / recognition threshold (RT), amyl acetate / recognition threshold (RT), nitrobenzene / recognition threshold (RT), pyridine / recognition threshold (RT), thiophene: mean ± SEM
Source text: Patients initially reported their sensory dysfunction as either loss of taste (i.e., flavor) and/or smell function. This subjective response was documented by objective psychophysical measurements of olfactory function administered to each patient by use of a forced-choice, three-stimuli, stepwise-staircase technique in a fixed, controlled design (1, 53). Efficacy of this technique and results of testing were previously documented in a double-blind clinical trial (53). Four odors were used; they were pyridine (dead-fish odor), nitrobenzene (bitter-almond odor), thiophene (petroleum-like odor) and amyl acetate (banana-oil odor). Detection thresholds (DT), recognition thresholds (RT) and magnitude estimation (ME) values for each odor were determined as previously described (1, 53). Thresholds were converted into bottle units (BU) as previously described (53) and results reported as M±SEM of correct responses for each odor in each treatment group; ME was reported in % and results calculated to obtain M±SEM for each treatment group for all correct responses using data for the four highest odor concentrations presented (from 10^−2M—an absolute odor concentration).
After determination of hyposmia, patients were treated in an open label, fixed design, controlled open trial. Patients were given an oral extended release theophylline in divided daily doses taken in the middle of breakfast and lunch. All patients were initially given 200 mg of theophylline; changes in this dose were made based upon subjective responses to therapy. If at a subsequent return visit, patients reported ≥5% subjective improvement in overall smell function, they continued on this same dose of theophylline and were reevaluated after four to six months of continued treatment. Results from any subsequent return from these improved patients were not included in any subsequent data report. All subsequent comparisons between treated and untreated patients were made only between those patients continuing in the study compared to their own measurements obtained in the untreated state. If patients reported <5% subjective improvement, their theophylline dose was increased by 200 mg daily and they were scheduled for retesting at the study site after two to four months at this new dosage. For patients that reported <5% improvement, this sequence continued until patients reached 800 mg of theophylline, at which time the study was considered completed.
Patients returned for reevaluation after two to four months of treatment. Measurements of blood serum theophylline were measured by a fluorescence polarization assay (Abbott, Chicago, IL). At this time, subjective changes in smell function were measured independently (compared to patient's memory of previous normal smell function monitored by use of the patients' daily measurements) using the scale from −100-0-+100 previously described (vs). After independently recording their subjective responses, smell function was measured for all four odors with DT, RT, ME and H determined without recourse to prior measurements.
Since data for all measurements from each patient group (local or distant) on each dose level were combined mean and SEM for each measurement (DT, RT, ME, H) of smell function for each treatment group were calculated on this basis. Differences in measurements between before treatment and each treatment level were calculated and significance of differences estimated using Student t tests (values p<0.05 considered significant). Some patient responses were also analyzed by use of non-parametric statistics (sign test) and the Spearman rank correlation technique; […] was considered significant related to smell loss type and treatment response. Since each patient served as his/her own control with respect to before and after treatment, paired t tests were also calculated; […] were considered significant. These values were not included in the results presented.

[2] = tested on: patients with hyposmia; test: Pilot study of intranasal theophylline, subjective taste and smell response; format: in vivo, human
Source text: Ten patients with hyposmia were selected from among 400 patients with hyposmia to participate in a pilot study to determine safety and efficacy of intranasal theophylline for the treatment of hyposmia. […] Selection for inclusion in the intranasal study was based upon several criteria. 1) non-response to oral theophylline; 2) severe side effects with oral theophylline that prevented reaching a dose of sufficient strength to restore smell function; and/or 3) preference for intranasal medication over oral medication.
Subjective responses to treatment were obtained independent of any interaction with the clinical staff by using a scale of 0-100 to measure response of taste function and smell function to treatment with 0 indicating no response, 100 indicating return to normal function and intermediate numbers indicating an intermediate response.
The patients inserted a plastic syringe containing 0.4 ml of fluid (20 μg theophylline) into each naris once a day. […] The drug dose was delivered through a plastic nipple which fitted snugly onto the filled syringe which was attached directly to the nipple. One nipple was supplied for each set of two syringes in each application kit. The patient fitted the nipple on one syringe, placed the nipple securely into the lower naris and injected the contents of the syringe directly into the lower vault of one naris accompanied by a modest inhalation. […]

[3] = asthma therapy; cited from earlier work
[4] = oral 200 mg daily, 2-6 months, all patients (199)
[5] = oral 200 mg, Type I hyposmia (57)
[6] = oral 400 mg daily, 2-6 months, all patients (120)
[7] = oral 400 mg, Type I hyposmia (33)
[8] = oral 600 mg daily, 2-12 months, all patients (160)
[9] = oral 600 mg, Type I hyposmia (51)
[10] = oral 800 mg daily, 2-12 months, all patients (28)
[11] = oral 800 mg, Type I hyposmia (12)

Question: For Cn1c(=O)c2[nH]cnc2n(C)c1=O [theophylline], which “detection threshold (DT), amyl acetate” value [1, 4] is on record?
Answer: Its value is 7.9 ± 0.2^c BU.

Question: And the “detection threshold (DT), nitrobenzene” value [1, 4]?
Answer: The value was 7.8 ± 0.2^d BU.

Question: And the “detection threshold (DT), pyridine” value [1, 4]?
Answer: The value was 7.6 ± 0.2^a BU.

Question: What about the “detection threshold (DT), thiophene” value [1, 4] of the same compound?
Answer: Its value is 7.5 ± 0.2^c BU.

Question: And the “magnitude estimation (ME), amyl acetate” value [1, 4]?
Answer: The value was 15 ± 2^d %.

Question: What about the “magnitude estimation (ME), nitrobenzene” value [1, 4] of the same compound?
Answer: Its value is 17 ± 2^ %.

Question: What about the “magnitude estimation (ME), pyridine” value [1, 4] of the same compound?
Answer: Its value is 28 ± 2^a %.

Question: What about the “magnitude estimation (ME), thiophene” value [1, 4] of the same compound?
Answer: The value was 21 ± 2^ %.

Question: What about the “recognition threshold (RT), amyl acetate” value [1, 4] of the same compound?
Answer: Its value is 9.9 ± 0.2^c BU.

Question: What about the “recognition threshold (RT), nitrobenzene” value [1, 4] of the same compound?
Answer: The value was 9.5 ± 0.2^a BU.

Question: What about the “recognition threshold (RT), pyridine” value [1, 4] of the same compound?
Answer: The value was 9.0 ± 0.2^a BU.

Question: What about the “recognition threshold (RT), thiophene” value [1, 4] of the same compound?
Answer: The value was 9.1 ± 0.2^c BU.

Question: What about the “detection threshold (DT), amyl acetate” value [1, 5] of the same compound?
Answer: Its value is 10.5 ± 0.3^d BU.

Question: And the “detection threshold (DT), nitrobenzene” value [1, 5]?
Answer: Its value is 10.3 ± 0.3^a BU.

Question: And the “detection threshold (DT), pyridine” value [1, 5]?
Answer: Its value is 9.5 ± 0.2 BU.

Question: What about the “detection threshold (DT), thiophene” value [1, 5] of the same compound?
Answer: Its value is 10.1 ± 0.3^d BU.

Question: And the “recognition threshold (RT), amyl acetate” value [1, 5]?
Answer: The value was 11.3 ± 0.2^ BU.

Question: And the “recognition threshold (RT), nitrobenzene” value [1, 5]?
Answer: Its value is 11.2 ± 0.2^d BU.

Question: And the “recognition threshold (RT), thiophene” value [1, 5]?
Answer: The value was 11.4 ± 0.2^ BU.

Question: And the “total mean increase in ME, all odors” value ([1]; oral 400 mg)?
Answer: The value was 10.4%.

Question: What about the “detection threshold (DT), amyl acetate” value [1, 6] of the same compound?
Answer: Its value is 7.1 ± 0.3^b BET.

Question: What about the “detection threshold (DT), nitrobenzene” value [1, 6] of the same compound?
Answer: The value was 7.2 ± 0.3^c BET.

Question: And the “detection threshold (DT), pyridine” value [1, 6]?
Answer: Its value is 7.0 ± 0.3^c BET.

Question: What about the “detection threshold (DT), thiophene” value [1, 6] of the same compound?
Answer: Its value is 6.8 ± 0.4^c BET.

Question: And the “magnitude estimation (ME), amyl acetate” value [1, 6]?
Answer: The value was 18 ± 2^c %.

Question: What about the “magnitude estimation (ME), nitrobenzene” value [1, 6] of the same compound?
Answer: The value was 23 ± 2^a %.

Question: What about the “magnitude estimation (ME), thiophene” value [1, 6] of the same compound?
Answer: The value was 26 ± 2^c %.

Question: What about the “recognition threshold (RT), nitrobenzene” value [1, 6] of the same compound?
Answer: The value was 8.9 ± 0.3^b BU.

Question: What about the “recognition threshold (RT), pyridine” value [1, 6] of the same compound?
Answer: Its value is 8.5 ± 0.3^a BU.

Question: What about the “recognition threshold (RT), thiophene” value [1, 6] of the same compound?
Answer: Its value is 8.4 ± 0.3^a BU.

Question: And the “detection threshold (DT), amyl acetate” value [1, 7]?
Answer: The value was 10.1 ± 0.5^a BU.

Question: And the “detection threshold (DT), pyridine” value [1, 7]?
Answer: The value was 8.8 ± 0.5 BU.

Question: And the “recognition threshold (RT), amyl acetate” value [1, 7]?
Answer: Its value is 11.2 ± 0.3^ BU.

Question: And the “recognition threshold (RT), nitrobenzene” value [1, 7]?
Answer: Its value is 10.9 ± 0.4^e BU.

Question: And the “recognition threshold (RT), thiophene” value [1, 7]?
Answer: The value was 10.8 ± 0.4^d BU.

Question: And the “detection threshold (DT), amyl acetate” value [1, 8]?
Answer: Its value is 7.8 ± 0.3^a BET.

Question: What about the “detection threshold (DT), nitrobenzene” value [1, 8] of the same compound?
Answer: Its value is 7.8 ± 0.3^a BET.

Question: And the “detection threshold (DT), pyridine” value [1, 8]?
Answer: Its value is 7.4 ± 0.2^c BET.

Question: And the “detection threshold (DT), thiophene” value [1, 8]?
Answer: Its value is 7.1 ± 0.3^a BET.

Question: And the “magnitude estimation (ME), amyl acetate” value [1, 8]?
Answer: Its value is 15 ± 2^c %.

Question: And the “magnitude estimation (ME), nitrobenzene” value [1, 8]?
Answer: Its value is 18 ± 2^d %.

Question: What about the “magnitude estimation (ME), pyridine” value [1, 8] of the same compound?
Answer: Its value is 26 ± 2^d %.

Question: And the “magnitude estimation (ME), thiophene” value [1, 8]?
Answer: The value was 21 ± 2^d %.

Question: What about the “recognition threshold (RT), amyl acetate” value [1, 8] of the same compound?
Answer: Its value is 9.6 ± 0.2^a BU.

Question: What about the “recognition threshold (RT), nitrobenzene” value [1, 8] of the same compound?
Answer: The value was 9.1 ± 0.2^c BU.

Question: What about the “recognition threshold (RT), pyridine” value [1, 8] of the same compound?
Answer: The value was 9.4 ± 0.2^c BU.

Question: What about the “recognition threshold (RT), thiophene” value [1, 8] of the same compound?
Answer: Its value is 9.0 ± 0.3^c BU.

Question: What about the “detection threshold (DT), amyl acetate” value [1, 9] of the same compound?
Answer: Its value is 10.1 ± 0.3^a BU.

Question: And the “recognition threshold (RT), amyl acetate” value [1, 9]?
Answer: Its value is 11.1 ± 0.2^c BU.

Question: And the “recognition threshold (RT), nitrobenzene” value [1, 9]?
Answer: The value was 10.8 ± 0.3^e BU.

Question: And the “recognition threshold (RT), pyridine” value [1, 9]?
Answer: The value was 10.9 ± 0.3 BU.

Question: And the “recognition threshold (RT), thiophene” value [1, 9]?
Answer: Its value is 10.9 ± 0.3^b BU.

Question: And the “detection threshold (DT), amyl acetate” value [1, 10]?
Answer: Its value is 7.2 ± 0.8 BU.

Question: And the “detection threshold (DT), nitrobenzene” value [1, 10]?
Answer: Its value is 7.0 ± 0.8^d BU.

Question: What about the “detection threshold (DT), thiophene” value [1, 10] of the same compound?
Answer: Its value is 7.2 ± 0.7 BU.

Question: What about the “magnitude estimation (ME), amyl acetate” value [1, 10] of the same compound?
Answer: The value was 24 ± 2^a %.

Question: And the “magnitude estimation (ME), nitrobenzene” value [1, 10]?
Answer: The value was 25 ± 6 ^ %.

Question: And the “magnitude estimation (ME), pyridine” value [1, 10]?
Answer: Its value is 29 ± 5%.

Question: And the “magnitude estimation (ME), thiophene” value [1, 10]?
Answer: Its value is 20 ± 4%.

Question: And the “recognition threshold (RT), amyl acetate” value [1, 10]?
Answer: Its value is 9.0 ± 0.5^b BU.

Question: What about the “recognition threshold (RT), nitrobenzene” value [1, 10] of the same compound?
Answer: Its value is 7.8 ± 0.8^d BU.

Question: What about the “recognition threshold (RT), pyridine” value [1, 10] of the same compound?
Answer: Its value is 8.5 ± 0.6^c BU.

Question: What about the “recognition threshold (RT), thiophene” value [1, 10] of the same compound?
Answer: The value was 9.6 ± 0.6 BU.

Question: What about the “detection threshold (DT), amyl acetate” value [1, 11] of the same compound?
Answer: The value was 10.6 ± 0.5^ BU.

Question: What about the “detection threshold (DT), nitrobenzene” value [1, 11] of the same compound?
Answer: The value was 10.1 ± 0.8^ BU.

Question: And the “detection threshold (DT), pyridine” value [1, 11]?
Answer: The value was 9.6 ± 0.8 BU.

Question: And the “recognition threshold (RT), amyl acetate” value [1, 11]?
Answer: Its value is 11.6 ± 0.4^ BU.

Question: What about the “recognition threshold (RT), nitrobenzene” value [1, 11] of the same compound?
Answer: Its value is 11.3 ± 0.7^ BU.

Question: And the “recognition threshold (RT), pyridine” value [1, 11]?
Answer: Its value is 10.3 ± 1.0 BU.

Question: And the “recognition threshold (RT), thiophene” value [1, 11]?
Answer: The value was 11.6 ± 0.2^ BU.

Question: And the “subjective improvement in both taste and smell function over prior results with oral theophylline” value ([2]; intranasal 20 μg per naris once a day, 4 weeks, six of eight patients)?
Answer: The value was 10-20%.

Question: And the “further loss of smell while in the study” value ([2]; intranasal 20 μg per naris, after stopping oral theophylline)?
Answer: Its value is “No patient exhibited a further of loss of smell”.

Question: What about the “therapeutic range for plasma concentrations” value [3] of the same compound?
Answer: The value was 10 to 20 mg/L.

Source: patent publication US12329753B2, “Phosphodiesterase inhibitor treatment” (Cyrano Therapeutics, Inc., priority 2008, dated 2025)
